Data reported in ChEMBL document CHEMBL1158333, “New diterpenes from the South African soft coral Eleutherobia aurea” (1997).

test: Antiinflammatory activity in rabbit neutrophils assessed as inhibition of fMLP-induced superoxide radical anion generation at 20 ug/mL; type: functional; settings: Oryctolagus cuniculus, Neutrophil

| Compound | inhibition at 20 µg/mL |
| --- | --- |
| C=C1CC/C=C(\C)CC[C@@H]2C(C(CC=C(C)C)OC(C)=O)=CO[C@H](OC(C)=O)[C@@H]12 (stereo partly drawn) | > 90% |
| C=C(C)C(CC(OC(C)=O)C1=CO[C@H](OC(C)=O)[C@H]2C(=C)CC/C=C(\C)CC[C@H]12)OC(C)=O (stereo partly drawn) [ZAHAVIN A] | > 90% |
| C=C(C)C(CC(OC(C)=O)C1=CO[C@H](OC(C)=O)[C@H]2C(=C)CC[C@@H]3O[C@@]3(C)CC[C@H]12)OC(C)=O (stereo partly drawn) [7,8-EPOXYZAHAVIN A] | > 90% |
